Test results taken from patent publication EP1153612A1, “ANTICANCER AGENT POTENTIATORS” (Tsuruo, Takashi, priority 1999, dated 2000).

Test system: human colon adenocarcinoma cell HT-29
Assay: Sensitivity of cells to anticancer drug by colony formation method (M phase-synchronized cells, with or without proteasome inhibiting agent)
Assay type: cell-based
Details: for change of cell-killing effect of camptothecin: lactacystin 10 µM 13 hours, camptothecin 4 hours, FIG. 14
Protocol: In the glucose starvation environment found in the solid cancer, the effect of combined use of the proteasome inhibitor in a human colon adenocarcinoma cell HT-29 with the anticancer drug targeting topoisomerase II was tested.
Concerning culture media, for a culture condition in a normal state, RPMI 1640 medium (Nissui Pharmaceutical Co.-made) to which a 5% FBS (fetal bovine serum) was added and for the culture condition in the glucose starvation state symbolically found in the solid cancer, RPMI 1640 medium (Lifetech Oriental-made), lacking glucose, in which the 5% FBS was added were used, respectively. Culture was carried out using a CO2 incubator (Tabai Espec-made) under conditions of 5% CO2/95% air and humidity 100%.
In order to test sensitivity to the anticancer drug, the cell cycle synchronization culture methodwas employed. Nocodazol (Sigma made) was used to synchronize the cell cycle, cells in a logarithmic proliferation phase were treated with 40 ng/ml Nocodazol for 9 hours, and cells accumulated in cell division phase (Mpahse) were collected by gentle pipetting. M phase-synchronized cells collected through these steps were washed with PBS (phosphate buffered saline) followed by inoculation of 1×10^5 cells per well of 12 well-culture plate.
M phase-synchronized cells were cultured under the normal condition and the glucose starvation condition to conduct treatments with the proteasome inhibiting agent and the anticancer drug as follows. For cells under the glucose starvation condition, the culture medium, to which the proteasome inhibiting agent and the protease inhibiting agent not inhibiting proteasome were added as the control group, and the culture medium, to which no inhibiting agent has been added, was used. For cells under the normal condition, the culture medium, to which each inhibiting agent was not added, was used. After inoculation of cells, culture was carried out for 13 hours in each culture medium. […]
Sensitivity of cells to the anticancer drug was measured using the colony formation method. As described above, cells treated with the proteasome inhibiting agent and the anticancer drug were washed with PBS followed by soaking in trypsin (Lifetech Oriental made) solution and removed from a culture dish to suspend in an ordinary culture medium. These cells were inoculated again in 500 to 5000 cells for a 10 cm culture dish and cultured for 10 to 12 days to form a colony. The colony formed was fixed by 10% formaldehyde solution and stainedwith 0.01% crystal violet (Wako Pure Chemicals made) solution. Number of colony was counted and a Cell survival rate was calculated assuming that the number of colonies untreated with the anticancer drug is 1.
For reference, the proteasome inhibiting agent and the protease inhibiting agent not inhibiting proteasome used as described above were as follows. • (1) Proteasome inhibiting agent • . […] MG115 (carbobenzoxy-L-Leucyl-L-Leucyl-L-Norvalinal): final concentration 2.5 µM (Peptide Institute Inc. made) • . MG132 (carbobenzoxy-L-Leucyl-L-Leucyl-Leucinal) : final concentration 2.5 µM (Peptide Institute Inc. made) • . Lactacystin, final concentration 10 µM (Kindly supplied from The Kitasato Institute made) • (2) Protease inhibiting agent not inhibiting proteasome • . E64, final concentration 25 µM (Peptide Institute Inc. made) • . ZLLal (carbobenzoxy-L-Leucyl-L-Leucinal): final concentration 25 µM (Peptide Institute Inc. made)
The cell culture condition for both M phase-synchronized culture method and culture under the glucose starvation condition was as described in Example 1. M phase-synchronized cells were cultured in the culture medium, to which lactacystin of the final concentration 10 µM was added, or the culture medium, to which this was not added, as the proteasome inhibiting agent under the ordinary condition and the glucose starvation condition, respectively, for 13 hours. […]

In the case of `CC(=O)N[C@@H](CSC(=O)[C@]1([C@@H](O)C(C)C)NC(=O)[C@H](C)[C@@H]1O)C(=O)O` [lactacystin], the “change of cell-killing effect of bleomycin” value (glucose starvation condition, lactacystin 7.5 µM 13 hours, bleomycin 4 hours) is reported as “enhances the cell-killing effect”, the “change of cell-killing effect of mitomycin C” value (glucose starvation condition, lactacystin 7.5 µM 13 hours, mitomycin C 4 hours) is reported as “enhances the cell-killing effect of mitomycin C” and the “change of cell-killing effect of camptothecin” value (glucose starvation condition) is reported as “enhances the cell-killing effect of camptothecin”. For the same molecule, the “effect on etoposide sensitivity” value (glucose starvation condition, lactacystin 10 µM, FIG. 3) was “enhances sensitivity to etoposide”, the “change of cell-killing effect of cisplatin” value (ordinary culture condition and glucose starvation condition, lactacystin 7.5 µM 13 hours, cisplatin 4 hours, FIG. 18) was “enhances the cell-killing effect of cisplatin” and the “change of cell-killing effect of camptothecin” value (ordinary culture condition) was “the cell-killing effect thereof is enhanced”.
